Test results: patent publication US10947252B2, “Inhibitors of KEAP1-Nrf2 protein-protein interaction” (Janssen Pharmaceutica NV, priority 2018, dated 2021)
pEC50, pKd: −log10 of the molar value.

What was measured:
[1] = target: Kelch domain of human KEAP1 (321-624 aa) (Homo sapiens (Human), UniProt Q14145); experiment: KEAP1 KELCH ThermoFluor binding assay; conditions: KEAP Kelch […], 1,8-ANS, pH 7.0, average of results obtained, read-out: Tf Kd;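 also: Ligand-induced melting temperature shift of E. coli-expressed KEAP1 Kelch protein, Kd estimated from concentration-response curves of ΔTm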
[2] = system: Glo-Response ARE-luc2P HEK293 cell line; experiment: ARE luciferase reporter cell-based assay; conditions: Homo sapiens, HEK293, 24 h, average of results obtained;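 also: luciferase signal tracks Nrf2 activation of the ARE once compounds disrupt KEAP1-Nrf2 binding, read with One-Glo reagent, DMSO serving as low control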

Sequence of Kelch domain of human KEAP1 (321-624 aa) (Q14145 321-624): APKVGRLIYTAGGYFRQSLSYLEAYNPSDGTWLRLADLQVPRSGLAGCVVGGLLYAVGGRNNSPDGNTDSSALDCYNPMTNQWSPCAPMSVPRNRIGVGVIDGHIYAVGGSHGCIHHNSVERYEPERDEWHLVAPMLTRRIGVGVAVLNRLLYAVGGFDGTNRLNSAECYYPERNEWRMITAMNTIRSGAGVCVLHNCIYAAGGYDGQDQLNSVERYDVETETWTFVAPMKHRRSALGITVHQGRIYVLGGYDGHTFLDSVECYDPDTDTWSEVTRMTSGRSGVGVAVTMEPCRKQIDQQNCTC

Row | Compound | pKd [1] | pEC50 [2]
1 | Cc1ccc([C@@H](CC(=O)O)c2ccc3c(nnn3CC3CC3)c2C(F)F)cc1CN1CC2CCCN2c2ncccc2S1(=O)=O (stereo in doubt) [Example 68, (*R)-3-(1-(Cyclopropylmethyl)-4-(difluoromethyl-1H-benzo[d][1,2,3]triazol-5-yl)-3-(3-((R-5,5-dioxido-7a,8,9,10-tetrahydropyridi[2,3-f]pyrrolo[2,1-d][1,2,5]thiadiazepin-6(7H)-yl)methyl)-4-methylphenyl)propanoic Acid] | 8.85 | 6.60
2 | Cc1ccc([C@@H](c2ccn3c(C(F)F)nnc3c2C)C(C)(C)C(=O)O)cc1CN1CC2(CCOCC2)Oc2ncccc2S1(=O)=O (single isomer, unassigned) [Example 53, (*S)-3-(3-(Difluoromethyl)-8-methyl-[1,2,4]triazolo[4,3-a]pyridin-7-yl)-3-(3-((1′,1′-dioxido-2,3,5,6-tetrahydrospiro[pyran-4,4′-pyrido[2,3-b][1,4,5]oxathiazepin]-2′(3′H)-yl)methyl)-4-methylphenyl)-2,2-dimethylpropanoic Acid] | > 9.00 | 8.41
3 | Cc1ccc([C@H](c2ccn3c(C(F)(F)F)nnc3c2)C(C)(C)C(=O)O)cc1CN1CC2(CCOCC2)Oc2ncccc2S1(=O)=O (single isomer, unassigned) [Example 321, (*R)-3-(3-((1′,1′-Dioxido-2,3,5,6-tetrahydrospiro[pyran-4,4′-pyrido[2,3-b][1,4,5]oxathiazepin]-2′(3′H)-yl)methyl)-4-methylphenyl)-2,2-dimethyl-3-(3-(trifluoromethyl)-[1,2,4]triazolo[4,3-a]pyridin-7-yl)propanoic Acid] | > 9.00 | 7.66
4 | Cc1ccc([C@H](CC(=O)O)c2ccc3c(nnn3C3CC3)c2C)cc1CN1C[C@@H]2CCCCN2c2ncccc2S1(=O)=O (single isomer, unassigned) [Example 398, (*S)-3-(1-Cyclopropyl-4-methyl-1H-benzo[d][1,2,3]triazol-5-yl)-3-(3-(((*S)-5,5-dioxido-7,7a,8,9,10,11-hexahydro-6H-dipyrido[2,1-d:2′,3′-f][1,2,5]thiadiazepin-6-yl)methyl)-4-methylphenyl)propanoic Acid] | > 9.00 | 8.85
5 | CC[C@@H]1CN(Cc2cc(C(CC(=O)O)c3ccn4c(C(F)(F)F)nnc4c3C)ccc2C)S(=O)(=O)c2cccnc2O1 (mixture of isomers) [Example 188, (R/S)-3-(3-(((R)-4-ethyl-1,1-dioxido-3,4-dihydro-2H-pyrido[2,3-b][1,4,5]oxathiazepin-2-yl)methyl)-4-methylphenyl)-3-(8-methyl-3-(trifluoromethyl)-[1,2,4]triazolo[4,3-a]pyridin-7-yl)propanoic acid] | > 9.00 | 7.77
6 | Cc1ccc([C@H](CC(=O)O)c2ccc3c(nnn3CC3CC3)c2C)cc1CN1C[C@@]2(C)CCCN2c2ncccc2S1(=O)=O (single isomer, unassigned) [Example 82, (*S)-3-(1-(Cyclopropylmethyl)-4-methyl-1H-benzo[d][1,2,3]triazol-5-yl)-3-(4-methyl-3-(((*R)-7a-methyl-5,5-dioxido-7a,8,9,10-tetrahydropyrido[2,3-f]pyrrolo[2,1-d][1,2,5]thiadiazepin-6(7H)-yl)methyl)phenyl)propanoic Acid] | 7.10 | 5.47
7 | Cc1ccc([C@H](c2ccn3c(C(F)(F)F)nnc3c2C)C(C)(C)C(=O)O)cc1CN1CC2(CCOCC2)Oc2nc(OCCN3CCC(F)(F)CC3)ccc2S1(=O)=O (single isomer, unassigned) [Example 360, (*R)-3-(3-((7′-(2-(4,4-Difluoropiperidin-1-yl)ethoxy)-1′,1′-dioxido-2,3,5,6-tetrahydrospiro[pyran-4,4′-pyrido[2,3-b][1,4,5]oxathiazepin]-2′(3′H)-yl)methyl)-4-methylphenyl)-2,2-dimethyl-3-(8-methyl-3-(trifluoromethyl)-[1,2,4]triazolo[4,3-a][pyridine-7-yl)propanoic Acid] | > 9.00 | 8.03
8 | Cc1ccc([C@H](CC(=O)O)c2ccn3c(C(F)F)nnc3c2C)cc1CN1CC2(CC2)Oc2ncccc2S1(=O)=O (single isomer, unassigned) [Example 473, (*S)-3-(3-(Difluoromethyl)-8-methyl-[1,2,4]triazolo[4,3-a]pyridin-7-yl)-3-(3-((1′,1′-dioxidospiro[cyclopropane-1,4′-pyrido[2,3-b][1,4,5]oxathiazepin]-2′(3′H)-yl)methyl)-4-methylphenyl)propanoic Acid] | > 9.00 | 6.98
9 | Cc1ccc([C@H](CC(=O)O)c2ccn3c(C(F)(F)F)nnc3c2C)cc1CN1CC2(COC2)Oc2ccc(F)cc2S1(=O)=O (single isomer, unassigned) [Example 99, (*S)-3-(3-((8-Fluoro-1,1-dioxidospiro[benzo[b][1,4,5]oxathiazepine-4,3′-oxetan]-2(3H)-yl)methyl]-4-methylphenyl)-3-(8-methyl-3-(trifluoromethyl)-[1,2,4]triazolo[4,3-a]pyridin-7-yl)propanoic Acid] | > 9.00 | 8.24
10 | CCn1nnc2c(C)c(C(CC(=O)O)c3ccc(C)c(CN4C[C@@H]5CCCN5c5ncccc5S4(=O)=O)c3)ccc21 (mixture of isomers) [Example 155, (R/S)-3-(3-(((S)-5,5-Dioxido-7a,8,9,10-tetrahydropyrido[2,3-f]pyrrolo[2,1-d][1,2,5]thiadiazepin-6(7H)-yl)methyl)-4-methylphenyl)-3-(1-ethyl-4-methyl-1H-benzo[d][1,2,3]triazol-5-yl)propanoic Acid] | > 9.00 | 8.21

The next lines start with results.

Row | pKd [1] | Compound | pEC50 [2]
11 | > 9.00 | Cc1ccc([C@@H](CC(=O)O)c2ccn3c(C(F)(F)F)nnc3c2C)cc1CN1C[C@H]2CCCN2c2ncccc2S1(=O)=O (single isomer, unassigned) [Example 390, (*R)-3-(3-(((R)-5,5-Dioxido-7a,8,9,10-tetrahydropyrido[2,3-f]pyrrolo[2,1-d][1,2,5]thiadiazepin-6(7H)-yl)methyl)-4-methylphenyl)-3-(8-methyl-3-(trifluoromethyl)-[1,2,4]triazolo[4,3-a]pyridin-7-yl)propanoic Acid] | 7.04
12 | > 9.00 | Cc1ncc([C@@H](c2ccn3c(C(F)(F)F)nnc3c2C)C(C)(C)C(=O)O)cc1CN1C[C@@H]2CCCCN2c2ncc(C#N)cc2S1(=O)=O (single isomer, unassigned) [Example 655, (*R)-3-(5-(((*S)-3-Cyano-5,5-dioxido-7,7a,8,9,10,11-hexahydro-6H-dipyrido[2,1-d:2′,3′-f][1,2,5]thiadiazepin-6-yl)methyl)-6-methylpyridin-3-yl)-2,2-dimethyl-3-(8-methyl-3-(trifluoromethyl)-[1,2,4]triazolo[4,3-a]pyridin-7-yl)propanoic Acid] | 6.86
13 | > 9.00 | Cc1cnc2c(c1)S(=O)(=O)N(Cc1cc([C@@H](c3ccn4c(C(F)F)nnc4c3C)C(C)(C)C(=O)O)ccc1C)CC1(CC1)O2 (single isomer, unassigned) [Example 560, (*S)-3-(3-(Difluoromethyl)-8-methyl-[1,2,4]triazolo[4,3-a]pyridin-7-yl)-2,2-dimethyl-3-(4-methyl-3-((8′-methyl-1′,1′-dioxidospiro[cyclopropane-1,4′-pyrido[2,3-b][1,4,5]oxathiazepin]-2′(3′H)-yl)methyl)phenyl)propanoic Acid] | 8.72
14 | 5.70 | Cc1ccc([C@H](c2ccn3c(C(F)(F)F)nnc3c2C)C(C)(C)C(=O)O)cc1CN1CC2(CC2)Oc2ncccc2S1(=O)=O (single isomer, unassigned) [Example 318, (*R)-3-(3-((1′,1′-Dioxidospiro[cyclopropane-1,4′-pyrido[2,3-b][1,4,5]oxathiazepin]-2′(3′H)-yl)methyl)-4-methylphenyl)-2,2-dimethyl-3-(8-methyl-3-(trifluoromethyl)-[1,2,4]triazolo[4,3-a]pyridin-7-yl)propanoic Acid] | 6.22
15 | > 9.00 | Cc1cnc([C@@H](c2ccn3c(C(F)(F)F)nnc3c2C)C(C)(C)C(=O)O)cc1CN1CC2(CC2)Oc2nc(OCCN3CCCCC3)c(C)cc2S1(=O)=O (single isomer, unassigned) [Example 592, (*S)-2,2-Dimethyl-3-(8-methyl-3-(trifluoromethyl)-[1,2,4]triazolo[4,3-a]pyridin-7-yl)-3-(5-methyl-4-((8′-methyl-1′,1′-dioxido-7′-(2-(piperidin-1-yl)ethoxy)spiro[cyclopropane-1,4′-pyrido[2,3-b][1,4,5]oxathiazepin]-2′(3′H)-yl)methyl)pyridin-2-yl)propanoic Acid] | 7.75
16 | > 9.00 | Cc1ncc([C@H](c2ccn3c(C(F)(F)F)nnc3c2C)C(C)(C)C(=O)O)cc1CN1C[C@@H]2CCCCN2c2ncc(C#N)cc2S1(=O)=O (single isomer, unassigned) [Example 657, (*S)-3-(5-(((*S)-3-Cyano-5,5-dioxido-7,7a,8,9,10,11-hexahydro-6H-dipyrido[2,1-d:2′,3′-f][1,2,5]thiadiazepin-6-yl)methyl)-6-methylpyridin-3-yl)-2,2-dimethyl-3-(8-methyl-3-(trifluoromethyl)-[1,2,4]triazolo[4,3-a]pyridin-7-yl)propanoic Acid] | 7.12
17 | > 9.00 | Cc1ncc([C@@H](c2ccc3c(nnn3C3CC3)c2C)C(C)(C)C(=O)O)cc1CN1CC2(COC2)Oc2ncccc2S1(=O)=O (single isomer, unassigned) [Example 613, (*R)-3-(1-Cyclopropyl-4-methyl-1H-benzo[d][1,2,3]triazol-5-yl)-3-(5-((1′,1′-dioxidospiro[oxetane-3,4′-pyrido[2,3-b][1,4,5]oxathiazepin]-2′(3′H)-yl)methyl)-6-methylpyridin-3-yl)-2,2-dimethylpropanoic Acid] | 7.48
